Assay results reported in patent publication US20220023325A1, “SPECIFIC TLR4 ANTAGONIST IN THE TREATMENT OF MULTIPLE MYELOMA” (Etablissement Français du Sang, priority 2016, published 2022).
Several values for one entry are separate records, joined by “and”; a condition that tells them apart may be missing. Equal values may be shown once.

Assays:
TLR4 [1] = target: T1, TLR4 (Homo sapiens, UniProt O00206+Q9Y6Y9); assay: Adhesion molecule expression on healthy donor MSCs after TLR4 stimulation; type: cell-based
T1 construct: the TLR4 molecule is overexpressed both at the transcriptional level (mRNA) and at the protein level in the MM MSCs; endogenous in cells; host or cells: primary mesenchymal stromal cells (MSCs) of multiple myeloma patients
T1 sequence (O00206 24-839): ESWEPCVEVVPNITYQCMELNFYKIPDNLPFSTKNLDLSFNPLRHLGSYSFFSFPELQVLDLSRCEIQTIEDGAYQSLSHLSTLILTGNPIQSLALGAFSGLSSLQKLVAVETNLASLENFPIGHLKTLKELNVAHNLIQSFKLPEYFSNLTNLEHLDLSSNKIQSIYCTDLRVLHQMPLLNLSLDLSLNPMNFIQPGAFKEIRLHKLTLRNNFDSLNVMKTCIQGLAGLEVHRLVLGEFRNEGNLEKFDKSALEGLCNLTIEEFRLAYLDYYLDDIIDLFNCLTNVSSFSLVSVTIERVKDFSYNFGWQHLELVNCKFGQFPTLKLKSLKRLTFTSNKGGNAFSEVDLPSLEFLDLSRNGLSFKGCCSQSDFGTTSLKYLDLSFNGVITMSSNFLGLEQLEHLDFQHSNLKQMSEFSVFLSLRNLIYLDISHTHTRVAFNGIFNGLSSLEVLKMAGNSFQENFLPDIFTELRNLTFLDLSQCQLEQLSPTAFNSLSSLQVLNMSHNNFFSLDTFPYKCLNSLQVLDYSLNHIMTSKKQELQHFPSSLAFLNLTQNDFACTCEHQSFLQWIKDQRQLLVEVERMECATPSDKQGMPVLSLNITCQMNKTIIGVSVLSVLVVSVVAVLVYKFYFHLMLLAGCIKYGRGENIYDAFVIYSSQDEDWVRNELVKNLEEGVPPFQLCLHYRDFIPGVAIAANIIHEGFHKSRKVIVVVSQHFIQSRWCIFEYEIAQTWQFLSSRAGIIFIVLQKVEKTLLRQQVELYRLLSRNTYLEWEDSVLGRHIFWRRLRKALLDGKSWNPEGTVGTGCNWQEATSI
T1 sequence (Q9Y6Y9 17-160 limits assumed): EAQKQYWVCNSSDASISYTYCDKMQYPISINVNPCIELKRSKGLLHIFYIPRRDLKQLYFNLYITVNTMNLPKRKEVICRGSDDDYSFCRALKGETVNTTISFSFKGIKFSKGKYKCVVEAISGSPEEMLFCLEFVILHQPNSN
Description: FIG. 3: Expression of different adhesion molecules involved in the interaction with MM plasma cells (CD49d, CD49e, CD54 and CD106) on the surface of MSCs of healthy subjects and patients with MM, stimulated or not with LPS. *p≤0.05**p≤0.01 FIG. 5: Expression of CD54 by MSCs from healthy donors or from patients with MM, whether stimulated or not with Hsp70. p*≤0.05 The inventors then studied the differential activation of TLR4 in the MSCs of healthy donors or MM patients. They analyzed the effect of stimulation by LPS, the TLR4 reference ligand widely described in the literature, on the expression of several adhesion molecules (CD49d/VLA-4, CD49e/VLA-5, CD54/ICAM-1 and CD106/VCAM-1) involved in the interaction between MSCs and malignant plasma cells. The level of expression (MFI: mean fluorescence intensity) of each molecule is shown in the histogram of FIG. 3.

TLR4 [2] = target: T1, TLR4; assay: Secretion of soluble factors (IGF-1, IL6) by MM patient MSCs after TLR4 stimulation; type: cell-based
Description: (§1) FIG. 6: Secretion of IL6 by MSCs from healthy donors or from patients with MM, stimulated or not with LPS.
FIG. 7: Secretion of IL6 by MSCs of healthy donors or from MM patients, whether stimulated or not with Hsp70.
(§2) The inventors also evaluated the effect of TLR4 stimulation on the soluble IGF-1 and IL6 factors involved in the survival and proliferation of myeloma cells.

TLR4 [3] = target: T1, TLR4; assay: Secretion of soluble factors (IGF-1, IL6) by healthy donor MSCs after TLR4 stimulation; type: cell-based
Description: as §1, §2

TLR4 [4] = target: T1, TLR4; assay: Adhesion molecule expression on MM patient MSCs after TLR4 stimulation; type: cell-based
Description: FIG. 3: Expression of different adhesion molecules involved in the interaction with MM plasma cells (CD49d, CD49e, CD54 and CD106) on the surface of MSCs of healthy subjects and patients with MM, stimulated or not with LPS. *p≤0.05**p≤0.01
FIG. 5: Expression of CD54 by MSCs from healthy donors or from patients with MM, whether stimulated or not with Hsp70. p*≤0.05
The inventors then studied the differential activation of TLR4 in the MSCs of healthy donors or MM patients. They analyzed the effect of stimulation by LPS, the TLR4 reference ligand widely described in the literature, on the expression of several adhesion molecules (CD49d/VLA-4, CD49e/VLA-5, CD54/ICAM-1 and CD106/VCAM-1) involved in the interaction between MSCs and malignant plasma cells. The level of expression (MFI: mean fluorescence intensity) of each molecule is shown in the histogram of FIG. 3.
In order to further investigate the role of TLR4 in the context of MM and to move closer to pathophysiology, the inventors stimulated MSCs with Hsp70, an endogenous ligand of TLR4 actively released in the MM microenvironment and secreted by the cell line of MM MOLP-6 (up to 200 ng/ml) (FIG. 4). In addition, this endogenous ligand has been described in the literature to have a chemoprotective role for MM malignant plasma cells (Nimmanapalli et al (2008) Br. Haematol 142: 551-561). […] Indeed Hsp-70 is a monomeric molecule and therefore induces a less important stimulation than LPS (multimeric). Nevertheless, once again, the MM MSCs respond better than the healthy MSCs.

MOLP-6 cells [5] = assay: MOLP-6 growth in coculture with stroma of MM patient MSCs; type: cell-based, human
Procedure: (§3) FIG. 9: Number of myeloma cells (MOLP-6)after culture of MOLP-6 alone untreated (NT) or treated with 1 μM or 10 μM of C34 (TLR4 antagonist), or in coculture with a stroma of MSCs from healthy or MM donors, untreated or treated with 1 μM or 10 μM C34.
(§4) To evaluate the role of TLR4 in the MSC/myeloma cell interaction, the inventors used a specific TLR4 antagonist, the C34 compound, marketed by Tocris, and a stroma-dependent myeloma cell line, the MOLP-6 line. Some studies have used stroma-independent myeloma cell lines such as MM1S or RPM18226. In this study, in order to approach the pathology and mimic real interactions between MSC and plasma cells, the inventors used a stroma-dependent cell line for its proliferation. Indeed, during MM (in the establishment and maintenance phases of the disease), myeloma cells strongly adhere to the MSCs of the stroma, which gives chemoresistance and survival signals favoring the evolution of MM.
(§5) Then they treated the healthy MSCs and MM with the C34 before and in co-culture with the MOLP-6. With the healthy stroma, the C34 antagonist (at 1 and 10 μM) has no effect on the growth support of MOLP-6, whereas with the stroma of MM, the TLR4 antagonist affects growth of MOLP-6 cells at the two doses used (33% decrease, FIG. 9).
The inventors co-cultured MSCs from 4 healthy donors (H) or 5 patients suffering from MM (MYE) as well as stroma-dependent MOLP-6 plasma cells: • without treatment (NT) • in the presence of C34 alone at 1 μM (C34 1 μM), • in the presence of melphalan alone at 100 nM (Mel 100 nM), • in the presence of lenalidomide alone at 100 nM (Len 100 nM), • in the presence of a combination of C34 at 1 μM and melphalan at 100 nM (Mel 100 nM+C34 1 μM), or • in the presence of a combination of C34 at 1 μM and lenalidomide at 100 nM (Len 100 nM+C34 1 μM).
(§6) After 7 days of culture, they calculated the percent inhibition of plasmocyte growth (FIGS. 11 and 12).

MOLP-6 cells [6] = assay: MOLP-6 growth in coculture with stroma of healthy donor MSCs; type: cell-based, human
Procedure: as §3, §4
as §5, with “9). […]” for “9).”
as §6

MOLP-6 cells [7] = assay: MOLP-6 myeloma cells cultured alone, treated with C34; type: cell-based, human; conditions: MOLP-6 alone, C34 1 μM or 10 μM
Procedure: as §3, §4, §5

[8] = MM MSCs, stimulation with Hsp70

For lipopolysaccharide [LPS], the “expression of CD49e” value (TLR4 [1]; healthy MSC, LPS stimulation) was “significantly increased”, the “expression of CD106” value (TLR4 [1]; healthy MSC, LPS stimulation) was “no effect” and the “expression of CD49d” value (TLR4 [1]; healthy MSC, LPS stimulation) was “no effect”. The “CD54 MFI” value (TLR4 [1]; healthy MSCs after LPS stimulation (basal 9.6)) was 148.7 and 149, the IGF-1 secretion (TLR4 [2]; MM MSCs, LPS stimulation) was “no effect” and the “secretion of IL6” value (TLR4 [2]; MSCs of MM after LPS stimulation (unstimulated 0.08)) was 0.7 pg/cell. For the same compound, the “secretion of IL6” value (TLR4 [3]; healthy MSCs after LPS stimulation (unstimulated 0.02)) was 0.1 pg/cell, the IGF-1 secretion (TLR4 [3]; healthy MSCs, LPS stimulation) was “no effect” and the “expression of CD49e” value (TLR4 [4]; MM MSC, LPS stimulation) was “significantly increased”. The “expression of CD106” value (TLR4 [4]; MM MSC, LPS stimulation) was “no effect”, the “expression of CD49d” value (TLR4 [4]; MM MSC, LPS stimulation) was “no effect” and the “CD54 MFI” value (TLR4 [4]; MSCs of MM after LPS stimulation (basal 4.3)) was 215.9 and 216.
With “Hsp70: endogenous ligand of TLR4, chaperone heat shock protein 70” the IL6 secretion (TLR4 [2]; [8]) was “increases” and the CD54 expression (TLR4 [4]; [8]) was “significantly increased”.
For `CC(=O)N[C@H]1[C@@H](OC(C)C)O[C@H](COC(C)=O)[C@@H](OC(C)=O)[C@@H]1OC(C)=O` [C34], the “effect on inhibition of proliferation of MM plasmocytes in combination with lenalidomide” value (MOLP-6 cells [5]; MM MSC coculture, C34 1 μM + lenalidomide 100 nM, 7 days) was “synergistic effect”, the “effect on inhibition of proliferation of MM plasmocytes in combination with melphalan” value (MOLP-6 cells [5]; MM MSC coculture, C34 1 μM + melphalan 100 nM, 7 days) was “synergistic effect” and the “decrease of growth of MOLP-6 cells” value (MOLP-6 cells [5]; stroma of MM, C34 at the two doses used (1 and 10 μM)) was 33%. The “effect on inhibition of plasmocyte growth in the presence of chemotherapeutic agents” value (MOLP-6 cells [6]; healthy MSC/MOLP-6 cocultures, C34 1 μM + melphalan or lenalidomide 100 nM, 7 days) was “no significant synergistic effect”, the “effect on the growth support of MOLP-6” value (MOLP-6 cells [6]; healthy stroma, C34 at 1 and 10 μM) was “no effect” and the “direct effect on MOLP-6 cells (number of myeloma cells)” value (MOLP-6 cells [7]) was “did not directly affect”.
